Reference: BindingDB's records for doi:10.1021/jm021014d (University of Bari Aldo Moro, 2003)
Where a name gives a salt, the structure may show the parent alone.

Assay: Inhibition of [3H]pentazocine binding to Sigma receptor type 1 in guinea pig brain membrane without cerebellum
In the case of `C(/C=C/c1ccc2c(c1)OCO2)=C\CN1CCCCC1` [1-(5-Benzo[1,3]dioxol-5-yl-penta-2,4-dienyl)-piperidine], the Ki is reported as 0.86 nM. Work on `CC1CCN([C@@H](C)COc2ccc(Cl)cc2)CC1` [1-[2-(4-Chloro-phenoxy)-1-methyl-ethyl]-4-methyl-piperidine; hydrochloride] yielded a Ki of 0.34 nM. With `CC1CCN([C@H](C)COc2ccc(Cl)cc2)CC1` [1-[2-(4-Chloro-phenoxy)-1-methyl-ethyl]-4-methyl-piperidine; hydrochloride] the Ki was 1.18 nM. In the case of `CC1CCN(C[C@@H](C)COc2ccc(Cl)cc2)CC1` [1-[3-(4-Chloro-phenoxy)-2-methyl-propyl]-4-methyl-piperidine; hydrochloride], the Ki is reported as 1.7 nM. Work on `CC1CCN(C[C@H](C)COc2ccc(Cl)cc2)CC1` [1-[3-(4-Chloro-phenoxy)-2-methyl-propyl]-4-methyl-piperidine; hydrochloride] yielded a Ki of 1.09 nM.
